Measured values as given in ChEMBL document CHEMBL4507270 (2021).

Legend:
[1] = target: Serine/threonine-protein kinase Nek4 (Homo sapiens) (UniProt P51957)
[2] = target: Serine/threonine-protein kinase 17B (Homo sapiens) (UniProt O94768)
[3] = target: Casein kinase I isoform delta (Homo sapiens) (UniProt P48730)
[4] = target: Casein kinase I isoform epsilon (Homo sapiens) (UniProt P49674)
[5] = test system: Phosphatidylinositol 4,5-bisphosphate 3-kinase catalytic subunit alpha isoform (Homo sapiens), P42336 [H1047L]
[6] = target: Dual specificity protein kinase CLK2 (Homo sapiens) (UniProt P49760)
[7] = target: Beta-2 adrenergic receptor (Homo sapiens) (UniProt P07550); details: Compound concentration 10.0 uM
[8] = target: Eukaryotic translation initiation factor 2-alpha kinase 1 (Homo sapiens) (UniProt Q9BQI3)
[9] = target: Serine/threonine-protein kinase PAK 4 (Homo sapiens) (UniProt O96013)
[10] = target: Misshapen-like kinase 1 (Homo sapiens) (UniProt Q8N4C8)
[11] = target: 5-hydroxytryptamine receptor 5A (Homo sapiens) (UniProt P47898); details: Compound concentration 10.0 uM
[12] = test system: Receptor-type tyrosine-protein kinase FLT3 (Homo sapiens), P36888 [D835Y]
[13] = target: Beta-adrenergic receptor kinase 1 (Homo sapiens) (UniProt P25098)
[14] = target: Alpha-1D adrenergic receptor (Homo sapiens) (UniProt P25100); details: Compound concentration 10.0 uM
[15] = target: Cyclin-dependent kinase 2 homolog (Plasmodium falciparum (isolate 3D7)) (UniProt P61075)
[16] = test system: Epidermal growth factor receptor (Homo sapiens), P00533 [T790M]
[17] = target: Ribosomal protein S6 kinase alpha-1 (Homo sapiens) (UniProt Q15418)
[18] = target: Citron Rho-interacting kinase (Homo sapiens) (UniProt O14578)
[19] = target: Inhibitor of nuclear factor kappa-B kinase subunit epsilon (Homo sapiens) (UniProt Q14164)
[20] = target: Serine/threonine-protein kinase N2 (Homo sapiens) (UniProt Q16513)
[21] = target: Myosin-IIIb (Homo sapiens) (UniProt Q8WXR4)
[22] = target: Serine/threonine-protein kinase PRP4 homolog (Homo sapiens) (UniProt Q13523)
[23] = target: Vascular endothelial growth factor receptor 3 (Homo sapiens, UniProt P35916)
[24] = target: Serine/threonine-protein kinase MRCK beta (Homo sapiens) (UniProt Q9Y5S2)
[25] = target: Mitogen-activated protein kinase kinase kinase 2 (Homo sapiens) (UniProt Q9Y2U5)
[26] = target: Protein kinase C eta type (Homo sapiens) (UniProt P24723)
[27] = target: Tyrosine-protein kinase receptor TYRO3 (Homo sapiens) (UniProt Q06418)
[28] = target: Mitogen-activated protein kinase kinase kinase 4 (Homo sapiens) (UniProt Q9Y6R4)
[29] = target: Ribosomal protein S6 kinase alpha-4 (Homo sapiens) (UniProt O75676)
[30] = target: Dual specificity mitogen-activated protein kinase kinase 2 (Homo sapiens) (UniProt P36507)
[31] = target: Sodium-dependent serotonin transporter (Homo sapiens) (UniProt P31645); details: Compound concentration 10.0 uM
[32] = test system: Epidermal growth factor receptor (Homo sapiens), P00533 [L858R]
[33] = target: Serine/threonine-protein kinase NIM1 (Homo sapiens) (UniProt Q8IY84)
[34] = target: Phosphatidylinositol 4-phosphate 5-kinase type-1 gamma (Homo sapiens) (UniProt O60331)
[35] = target: Activin receptor type-1B (Homo sapiens) (UniProt P36896)
[36] = target: Serine/threonine-protein kinase STK11 (Homo sapiens) (UniProt Q15831)
[37] = target: Serine/threonine-protein kinase N1 (Homo sapiens) (UniProt Q16512)
[38] = target: Serine/threonine-protein kinase MAK (Homo sapiens) (UniProt P20794)
[39] = target: Ankyrin repeat and protein kinase domain-containing protein 1 (Homo sapiens) (UniProt Q8NFD2)
[40] = target: Muscle, skeletal receptor tyrosine-protein kinase (Homo sapiens) (UniProt O15146)
[41] = target: Mitogen-activated protein kinase kinase kinase 5 (Homo sapiens) (UniProt Q99683)
[42] = target: cAMP-dependent protein kinase catalytic subunit PRKX (Homo sapiens) (UniProt P51817)
[43] = test system: Epidermal growth factor receptor (Homo sapiens), P00533 [G719C]
[44] = target: Interleukin-1 receptor-associated kinase 3 (Homo sapiens) (UniProt Q9Y616)
[45] = target: Phosphorylase b kinase gamma catalytic chain, skeletal muscle/heart isoform (Homo sapiens) (UniProt Q16816)
[46] = Compound concentration 100.0 nM
[47] = Compound concentration 1000.0 nM

Chain of Mitogen-activated protein kinase kinase kinase 4 (Homo sapiens) (Q9Y6R4 whole entry): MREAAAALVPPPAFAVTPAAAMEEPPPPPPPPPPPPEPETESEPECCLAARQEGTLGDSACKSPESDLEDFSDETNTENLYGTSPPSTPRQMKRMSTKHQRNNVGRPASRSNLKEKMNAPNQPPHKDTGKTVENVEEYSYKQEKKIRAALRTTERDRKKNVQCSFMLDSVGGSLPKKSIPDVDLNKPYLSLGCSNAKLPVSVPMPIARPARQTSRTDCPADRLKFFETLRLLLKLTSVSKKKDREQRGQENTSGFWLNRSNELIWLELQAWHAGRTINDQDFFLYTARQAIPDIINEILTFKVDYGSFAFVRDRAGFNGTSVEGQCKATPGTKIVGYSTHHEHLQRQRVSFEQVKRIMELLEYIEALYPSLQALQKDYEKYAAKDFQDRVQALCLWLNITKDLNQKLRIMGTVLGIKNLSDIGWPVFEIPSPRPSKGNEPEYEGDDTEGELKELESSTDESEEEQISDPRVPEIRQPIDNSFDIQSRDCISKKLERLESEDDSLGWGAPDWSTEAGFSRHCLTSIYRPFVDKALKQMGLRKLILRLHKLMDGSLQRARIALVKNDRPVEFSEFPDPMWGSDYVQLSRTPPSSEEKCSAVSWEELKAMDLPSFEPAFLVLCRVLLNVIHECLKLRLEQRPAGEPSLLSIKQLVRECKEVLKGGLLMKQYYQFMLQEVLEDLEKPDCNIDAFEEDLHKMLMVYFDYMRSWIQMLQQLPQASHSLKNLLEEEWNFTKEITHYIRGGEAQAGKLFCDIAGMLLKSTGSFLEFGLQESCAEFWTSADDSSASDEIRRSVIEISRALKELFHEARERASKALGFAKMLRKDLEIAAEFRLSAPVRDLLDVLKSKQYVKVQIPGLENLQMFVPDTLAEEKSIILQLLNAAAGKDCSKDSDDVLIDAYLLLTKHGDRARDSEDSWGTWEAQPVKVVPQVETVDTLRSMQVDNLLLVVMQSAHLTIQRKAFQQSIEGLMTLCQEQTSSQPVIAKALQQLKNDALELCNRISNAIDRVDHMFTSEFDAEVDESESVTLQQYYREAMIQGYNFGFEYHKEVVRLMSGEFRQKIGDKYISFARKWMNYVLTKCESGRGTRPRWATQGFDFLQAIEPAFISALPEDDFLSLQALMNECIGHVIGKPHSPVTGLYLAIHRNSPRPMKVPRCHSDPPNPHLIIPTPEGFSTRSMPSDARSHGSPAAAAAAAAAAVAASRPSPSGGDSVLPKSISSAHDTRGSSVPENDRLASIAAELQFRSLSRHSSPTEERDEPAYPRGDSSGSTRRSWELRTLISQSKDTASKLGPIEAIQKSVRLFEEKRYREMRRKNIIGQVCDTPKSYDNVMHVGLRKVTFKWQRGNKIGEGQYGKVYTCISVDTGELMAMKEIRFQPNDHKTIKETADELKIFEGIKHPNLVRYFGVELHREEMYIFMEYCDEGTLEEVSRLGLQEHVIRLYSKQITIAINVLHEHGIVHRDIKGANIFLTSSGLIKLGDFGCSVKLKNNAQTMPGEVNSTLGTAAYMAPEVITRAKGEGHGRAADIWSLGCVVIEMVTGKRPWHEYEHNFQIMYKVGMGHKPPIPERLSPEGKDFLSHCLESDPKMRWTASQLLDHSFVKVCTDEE
Chain of Serine/threonine-protein kinase Nek4 (Homo sapiens) (P51957 whole entry, looked up): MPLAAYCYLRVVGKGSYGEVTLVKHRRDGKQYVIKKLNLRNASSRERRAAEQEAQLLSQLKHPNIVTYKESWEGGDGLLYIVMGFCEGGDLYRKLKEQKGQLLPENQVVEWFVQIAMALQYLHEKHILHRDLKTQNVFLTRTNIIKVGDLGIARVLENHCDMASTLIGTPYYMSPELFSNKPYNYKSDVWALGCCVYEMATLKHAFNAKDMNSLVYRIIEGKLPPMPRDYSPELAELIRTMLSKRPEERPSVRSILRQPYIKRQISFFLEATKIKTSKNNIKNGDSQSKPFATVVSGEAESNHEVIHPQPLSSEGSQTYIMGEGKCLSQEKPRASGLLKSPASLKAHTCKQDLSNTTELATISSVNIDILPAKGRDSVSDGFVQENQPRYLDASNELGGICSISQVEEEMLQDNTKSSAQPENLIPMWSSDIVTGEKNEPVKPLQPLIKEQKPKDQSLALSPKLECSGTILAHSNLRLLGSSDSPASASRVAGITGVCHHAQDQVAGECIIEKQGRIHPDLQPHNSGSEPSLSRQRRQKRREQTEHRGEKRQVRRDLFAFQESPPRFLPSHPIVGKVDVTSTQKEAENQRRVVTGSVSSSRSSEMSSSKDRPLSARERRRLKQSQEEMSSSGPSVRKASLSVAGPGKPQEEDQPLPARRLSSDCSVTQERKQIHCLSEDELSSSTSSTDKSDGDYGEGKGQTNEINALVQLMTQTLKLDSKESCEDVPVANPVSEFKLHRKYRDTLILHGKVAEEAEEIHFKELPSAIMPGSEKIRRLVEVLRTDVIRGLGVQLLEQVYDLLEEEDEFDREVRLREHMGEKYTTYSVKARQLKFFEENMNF
Chain of 5-hydroxytryptamine receptor 5A (Homo sapiens) (P47898 whole entry): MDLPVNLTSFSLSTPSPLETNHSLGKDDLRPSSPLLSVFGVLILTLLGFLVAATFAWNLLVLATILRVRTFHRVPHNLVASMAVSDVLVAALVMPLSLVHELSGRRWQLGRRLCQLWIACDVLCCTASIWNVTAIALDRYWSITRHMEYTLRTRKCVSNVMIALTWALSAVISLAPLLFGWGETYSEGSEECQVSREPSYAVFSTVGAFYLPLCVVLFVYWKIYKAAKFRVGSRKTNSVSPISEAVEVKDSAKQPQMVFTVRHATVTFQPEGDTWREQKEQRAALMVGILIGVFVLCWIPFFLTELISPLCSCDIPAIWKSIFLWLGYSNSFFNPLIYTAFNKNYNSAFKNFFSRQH
Chain of Dual specificity protein kinase CLK2 (Homo sapiens) (P49760 whole entry, looked up): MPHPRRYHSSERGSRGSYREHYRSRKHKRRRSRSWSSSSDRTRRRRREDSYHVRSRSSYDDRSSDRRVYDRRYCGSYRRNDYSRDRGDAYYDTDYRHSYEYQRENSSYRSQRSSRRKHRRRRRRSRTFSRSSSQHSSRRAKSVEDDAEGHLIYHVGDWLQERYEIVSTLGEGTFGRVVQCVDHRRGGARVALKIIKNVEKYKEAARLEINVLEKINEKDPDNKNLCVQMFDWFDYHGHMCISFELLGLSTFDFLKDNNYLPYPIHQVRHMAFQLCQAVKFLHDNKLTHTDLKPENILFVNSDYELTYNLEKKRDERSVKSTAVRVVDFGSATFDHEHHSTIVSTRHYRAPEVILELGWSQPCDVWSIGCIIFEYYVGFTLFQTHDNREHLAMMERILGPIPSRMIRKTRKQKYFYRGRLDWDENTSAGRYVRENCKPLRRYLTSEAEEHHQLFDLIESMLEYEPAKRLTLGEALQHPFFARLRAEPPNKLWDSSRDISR
Chain of Serine/threonine-protein kinase NIM1 (Homo sapiens) (Q8IY84 whole entry): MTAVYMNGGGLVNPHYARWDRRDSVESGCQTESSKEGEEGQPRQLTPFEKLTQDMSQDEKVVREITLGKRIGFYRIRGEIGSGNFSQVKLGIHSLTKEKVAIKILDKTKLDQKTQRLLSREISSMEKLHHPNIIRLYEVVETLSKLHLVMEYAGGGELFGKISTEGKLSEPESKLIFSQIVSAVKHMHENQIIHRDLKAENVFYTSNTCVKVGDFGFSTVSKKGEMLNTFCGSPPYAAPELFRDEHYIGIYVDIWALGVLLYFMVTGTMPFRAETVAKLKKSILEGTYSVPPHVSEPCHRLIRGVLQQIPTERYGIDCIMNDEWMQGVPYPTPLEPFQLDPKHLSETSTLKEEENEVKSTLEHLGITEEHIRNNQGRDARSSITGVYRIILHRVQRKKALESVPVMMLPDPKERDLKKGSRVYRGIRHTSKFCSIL
Chain of Vascular endothelial growth factor receptor 3 (P35916 whole entry): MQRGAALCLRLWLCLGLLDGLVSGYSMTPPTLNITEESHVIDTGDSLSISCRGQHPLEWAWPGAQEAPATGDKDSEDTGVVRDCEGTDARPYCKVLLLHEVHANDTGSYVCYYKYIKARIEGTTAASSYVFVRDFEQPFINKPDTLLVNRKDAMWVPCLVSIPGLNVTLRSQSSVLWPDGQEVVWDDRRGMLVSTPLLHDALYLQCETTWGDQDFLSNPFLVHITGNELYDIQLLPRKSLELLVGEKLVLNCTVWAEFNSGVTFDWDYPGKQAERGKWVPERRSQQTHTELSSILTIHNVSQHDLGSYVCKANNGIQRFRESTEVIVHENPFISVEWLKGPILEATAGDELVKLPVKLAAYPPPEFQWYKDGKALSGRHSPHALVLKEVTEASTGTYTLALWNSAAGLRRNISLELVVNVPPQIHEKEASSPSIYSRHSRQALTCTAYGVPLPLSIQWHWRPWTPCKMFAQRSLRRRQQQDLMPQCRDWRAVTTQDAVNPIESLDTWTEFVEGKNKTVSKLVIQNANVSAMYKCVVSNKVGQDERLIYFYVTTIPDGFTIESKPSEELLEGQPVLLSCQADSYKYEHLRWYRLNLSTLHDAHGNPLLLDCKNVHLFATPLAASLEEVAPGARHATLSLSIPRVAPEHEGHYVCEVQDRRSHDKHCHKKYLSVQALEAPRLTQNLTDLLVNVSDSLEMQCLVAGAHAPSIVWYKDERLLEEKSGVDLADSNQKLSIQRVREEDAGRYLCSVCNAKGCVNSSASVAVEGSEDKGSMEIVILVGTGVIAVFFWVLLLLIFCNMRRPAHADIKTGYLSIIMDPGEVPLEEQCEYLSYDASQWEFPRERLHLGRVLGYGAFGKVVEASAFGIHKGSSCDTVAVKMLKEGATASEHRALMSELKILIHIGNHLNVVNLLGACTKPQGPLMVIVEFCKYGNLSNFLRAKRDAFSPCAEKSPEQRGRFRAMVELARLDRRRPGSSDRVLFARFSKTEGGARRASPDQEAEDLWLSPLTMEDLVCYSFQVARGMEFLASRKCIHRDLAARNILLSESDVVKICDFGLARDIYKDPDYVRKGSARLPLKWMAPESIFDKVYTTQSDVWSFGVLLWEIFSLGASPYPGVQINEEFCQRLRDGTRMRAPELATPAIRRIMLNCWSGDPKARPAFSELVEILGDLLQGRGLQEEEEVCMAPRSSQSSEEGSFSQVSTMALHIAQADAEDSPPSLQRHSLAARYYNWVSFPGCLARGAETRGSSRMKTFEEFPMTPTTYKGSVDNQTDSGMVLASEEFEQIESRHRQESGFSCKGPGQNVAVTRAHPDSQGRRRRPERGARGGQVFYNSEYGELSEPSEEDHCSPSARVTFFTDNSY

Cc1cc(C)c(-n2ccn3nc(-c4cccnc4)cc23)cc1NC(=O)c1cc(C#N)cc(S(F)(F)(F)(F)F)c1 [BAY-826]
inactive: residual activity [1, 46] 90.2% | residual activity [2, 46] 91.4% | residual activity [3, 46] 100% | residual activity [4, 46] 98.7% | residual activity [5, 46] 82.7% | residual activity [6, 46] 91% | inhibition [7] 25.6% | residual activity [8, 46] 100% | residual activity [9, 46] 70.4% | residual activity [10, 46] 88.9% | inhibition [11] 9.57% | residual activity [12, 46] 91.4% | residual activity [13, 46] 91.8% | inhibition [14] -2.46% | residual activity [15, 46] 90.9% | residual activity [16, 46] 61.6% | residual activity [17, 46] 100% | residual activity [18, 46] 69.9% | residual activity [19, 46] 59.9% | residual activity [20, 46] 100% | residual activity [21, 46] 82.4% | residual activity [22, 46] 80.6% | residual activity [23, 46] 77.6% | residual activity [24, 46] 95.5% | residual activity [25, 46] 86.4% | residual activity [26, 46] 99.5% | residual activity [27, 46] 72.4% | residual activity [28, 46] 98.1% | residual activity [29, 46] 79.3% | residual activity [30, 46] 74.4% | inhibition [31] 11.1% | residual activity [32, 46] 83.9% | residual activity [33, 46] 98.9% | residual activity [34, 46] 70.2% | residual activity [35, 46] 100% | residual activity [36, 46] 75.9% | residual activity [37, 46] 96.7% | residual activity [38, 46] 77.2% | residual activity [39, 46] 84.5% | residual activity [40, 46] 78.6% | residual activity [41, 46] 100% | residual activity [42, 46] 68.5% | residual activity [43, 46] 91.6% | residual activity [44, 46] 75.2% | residual activity [45, 46] 80.1%

Cc1cc(NC(=O)c2cccc(S(F)(F)(F)(F)F)c2)cc(-n2ccn3nc(-c4cccnc4)cc23)c1 [BAY-309]
inactive: residual activity [1, 47] 92.9% | residual activity [2, 47] 100% | residual activity [3, 47] 100% | residual activity [4, 47] 75.7% | residual activity [5, 47] 100% | residual activity [6, 47] 100% | inhibition [7] -7.8% | residual activity [8, 47] 100% | residual activity [9, 47] 91.8% | residual activity [10, 47] 82% | inhibition [11] -4.71% | residual activity [12, 47] 100% | residual activity [13, 47] 74.5% | inhibition [14] 27.7% | residual activity [15, 47] 71.8% | residual activity [16, 47] 100% | residual activity [17, 47] 100% | residual activity [18, 47] 60.7% | residual activity [19, 47] 100% | residual activity [20, 47] 100% | residual activity [21, 47] 73.8% | residual activity [22, 47] 99.7% | residual activity [23, 47] 82.3% | residual activity [24, 47] 100% | residual activity [25, 47] 52.7% | residual activity [26, 47] 100% | residual activity [27, 47] 88.4% | residual activity [28, 47] 53.6% | residual activity [29, 47] 100% | residual activity [30, 47] 93.3% | inhibition [31] 19.2% | residual activity [32, 47] 100% | residual activity [33, 47] 100% | residual activity [34, 47] 100% | residual activity [35, 47] 100% | residual activity [36, 47] 100% | residual activity [37, 47] 100% | residual activity [38, 47] 100% | residual activity [39, 47] 100% | residual activity [40, 47] 82% | residual activity [41, 47] 100% | residual activity [42, 47] 100% | residual activity [43, 47] 94.2% | residual activity [44, 47] 100% | residual activity [45, 47] 100%
